Measured values reported in patent US10023562B2, “Heteroaryl substituted pyridyl compounds useful as kinase modulators” (BRISTOL-MYERS SQUIBB COMPANY, priority 2012, dated 2018).

Tested on: TLR2 induced IL-6 in peripheral blood mononuclear cells (PBMCs)
Assay: PBMC TLR2 Induced IL-6 Assay
Type: cell-based
Conditions: Homo sapiens, PBMC, 5 h, 10 μg/ml lipoteichoic acid for 5 hours, IL-6 by ELISA; for IC50: values without asterisk, read-out: Cell IC50; for EC50: values marked * are EC50, read-out: Cell EC50 (values marked *)
Protocol: PBMC TLR2 Induced IL-6 Assay Peripheral blood mononuclear cells (PBMCs) were isolated from human blood containing the anti-coagulant EDTA (2.5 mM) by centrifugation over a FICOLL® gradient. […] At the end of the culture, plates were centrifuged at 1800 rpm for 10 minutes to pellet the cells. Supernatants were harvested and analyzed for IL-6 levels by ELISA (BD Biosciences, San Jose, Calif.).

Structure (SMILES): CC(C)Nc1cc(Nc2ccc(C#N)c(N3CCC(O)C3)n2)ncc1C(=O)NC[C@@H](F)C(C)(C)O (stereo in doubt) [Example 27, 6-((5-cyano-6-((3S)-3-hydroxy-1-pyrrolidinyl)-2-pyridinyl)amino)-N-((2R)-2-fluoro-3-hydroxy-3-methylbutyl)-4-(isopropylamino)nicotinamide]
- IC50: 0.133 µM

Structure (SMILES): CNC(=O)c1cnc(Nc2ccc(C#N)cn2)cc1N[C@@H](c1ccccc1)[C@H](O)CO [Example 1, 6-((5-cyano-2-pyridinyl)amino)-4-(((1S,2S)-2,3-dihydroxy-1-phenylpropyl)amino)-N-methylnicotinamide]
- IC50: 0.55 µM

Structure (SMILES): CC(C)Nc1cc(Nc2ccc(C#N)cn2)ncc1C(=O)NC[C@@H](F)C(C)(C)O [Example 2, 6-((5-cyano-2-pyridinyl)amino)-N-((2R)-2-fluoro-3-hydroxy-3-methylbutyl)-4-(isopropylamino)nicotinamide]
- IC50: 0.453 µM

Structure (SMILES): CC(C)(O)[C@H](F)CNC(=O)c1cnc(Nc2ccc(C#N)cn2)cc1NCC(F)(F)F [Example 3, 6-((5-cyano-2-pyridinyl)amino)-N-((2R)-2-fluoro-3-hydroxy-3-methylbutyl)-4-((2,2,2-trifluoroethyl)amino)nicotinamide]
- IC50: 0.789 µM

Structure (SMILES): CCNc1cc(Nc2ccc(C#N)cn2)ncc1C(=O)NC[C@@H](F)C(C)(C)O [Example 4, 6-((5-cyano-2-pyridinyl)amino)-4-(ethylamino)-N-((2R)-2-fluoro-3-hydroxy-3-methylbutyl)nicotinamide]
- IC50: 0.454 µM

Structure (SMILES): CNC(=O)[C@H]1CC[C@H](NC(=O)c2cnc(Nc3ccc(C#N)cn3)cc2NC(C)C)CC1 [Example 5, 6-((5-cyano-2-pyridinyl)amino)-4-(isopropylamino)-N-(trans-4-(methylcarbamoyl)cyclohexyl)nicotinamide]
- IC50: 0.588 µM

Structure (SMILES): CC(C)Nc1cc(Nc2ccc(C#N)cn2)ncc1C(=O)N[C@H]1CC[C@H](C(=O)NC2CC2)CC1 [Example 6, 6-((5-cyanopyridin-2-yl)amino)-N-((1R,4R)-4-(cyclopropylcarbamoyl)cyclohexyl)-4-(isopropylamino)nicotinamide]
- IC50: 0.648 µM

Structure (SMILES): CC(C)Nc1cc(Nc2ccc(C#N)cn2)ncc1C(=O)N[C@H]1CC[C@H](C(=O)N[C@H]2C[C@H]2F)CC1 [Example 7, 6-((5-cyano-2-pyridinyl)amino)-N-(trans-4-(((1S,2R)-2-fluorocyclopropyl)carbamoyl)cyclohexyl)-4-(isopropylamino)nicotinamide]
- IC50: 0.8 µM

Structure (SMILES): CC(=O)N1CCC(NC(=O)c2cnc(Nc3ccc(C#N)cn3)cc2NC(C)C)CC1 [Example 8, N-(1-acetyl-4-piperidinyl)-6-((5-cyano-2-pyridinyl)amino)-4-(isopropylamino)nicotinamide]
- IC50: 0.433 µM

Structure (SMILES): CC(=O)N[C@H]1CC[C@H](NC(=O)c2cnc(Nc3ccc(C#N)cn3)cc2NC(C)C)CC1 [Example 9, N-(trans-4-acetamidocyclohexyl)-6-((5-cyano-2-pyridinyl)amino)-4-(isopropylamino)nicotinamide]
- IC50: 0.116 µM

Structure (SMILES): CC(=O)N[C@H]1CC[C@H](NC(=O)c2cnc(Nc3ccc(C#N)cn3)cc2NC2CCOCC2F)CC1 (stereo partly drawn) [Example 11, N-((1R,4R)-4-acetamidocyclohexyl)-6-((5-cyanopyridin-2-yl)amino)-4-(((3 S,4R)-3-fluorotetrahydro-2H-pyran-4-yl)amino)nicotinamide]
- IC50: 0.32 µM

Structure (SMILES): CC(C)Nc1cc(Nc2ncc(C#N)cc2Cl)ncc1C(=O)NC[C@@H](F)C(C)(C)O [Example 12, 6-((3-chloro-5-cyano-2-pyridinyl)amino)-N-((2R)-2-fluoro-3-hydroxy-3-methylbutyl)-4-(isopropylamino)nicotinamide]
- IC50: 0.05 µM

Structure (SMILES): CC(C)(O)[C@H](F)CNC(=O)c1cnc(Nc2ncc(C#N)cc2Cl)cc1NC1CCOCC1 [Example 13, 6-((3-chloro-5-cyano-2-pyridinyl)amino)-N-((2R)-2-fluoro-3-hydroxy-3-methylbutyl)-4-(tetrahydro-2H-pyran-4-ylamino)nicotinamide]
- IC50: 0.42 µM

Structure (SMILES): CC(C)(O)[C@H](F)CNC(=O)c1cnc(Nc2ncc(C#N)cc2Cl)cc1NC1CC1 [Example 14, 6-((3-chloro-5-cyano-2-pyridinyl)amino)-4-(cyclopropylamino)-N-((2R)-2-fluoro-3-hydroxy-3-methylbutyl)nicotinamide]
- IC50: 0.043 µM

Structure (SMILES): CC(=O)N[C@H]1CC[C@H](NC(=O)c2cnc(Nc3ncc(C#N)cc3Cl)cc2NC(C)C)CC1 [Example 15, N-((1r,4r)-4-acetamidocyclohexyl)-6-((3-chloro-5-cyanopyridin-2-yl)amino)-4-(isopropylamino)nicotinamide]
- IC50: 0.245 µM

Structure (SMILES): CNC(=O)[C@H]1CC[C@H](NC(=O)c2cnc(Nc3ncc(C#N)cc3Cl)cc2NC(C)C)CC1 [Example 16, 6-((3-chloro-5-cyanopyridin-2-yl)amino)-4-(isopropylamino)-N—((1r,4r)-4-(methylcarbamoyl)cyclohexyl)nicotinamide]
- IC50: 0.212 µM

Structure (SMILES): CC(C)Nc1cc(Nc2ncc(C#N)cc2F)ncc1C(=O)NC[C@@H](F)C(C)(C)O [Example 17, 6-((5-cyano-3-fluoro-2-pyridinyl)amino)-N-((2R)-2-fluoro-3-hydroxy-3-methylbutyl)-4-(isopropylamino)nicotinamide]
- IC50: 0.382 µM

Structure (SMILES): CNC(=O)[C@H]1CC[C@H](NC(=O)c2cnc(Nc3ncc(C#N)cc3F)cc2NC(C)C)CC1 [Example 18, 6-((5-cyano-3-fluoropyridin-2-yl)amino)-4-(isopropylamino)-N-((1r,4r)-4-(methylcarbamoyl)cyclohexyl)nicotinamide]
- IC50: 0.137 µM

Structure (SMILES): CC(=O)N[C@H]1CC[C@H](NC(=O)c2cnc(Nc3ncc(C#N)cc3F)cc2NC(C)C)CC1 [Example 19, N-(trans-4-acetamidocyclohexyl)-6-((5-cyano-3-fluoro-2-pyridinyl)amino)-4-(isopropylamino)nicotinamide]
- IC50: 0.378 µM

Structure (SMILES): CC(C)Nc1cc(Nc2ccncn2)ncc1C(=O)NC[C@@H](F)C(C)(C)O [Example 20, N-((2R)-2-fluoro-3-hydroxy-3-methylbutyl)-4-(isopropylamino)-6-(4-pyrimidinylamino)nicotinamide]
- IC50: 0.647 µM

Structure (SMILES): CC(C)(O)[C@H](F)CNC(=O)c1cnc(Nc2ccncn2)cc1NC1CC1 [Example 21, 4-(cyclopropylamino)-N-((2R)-2-fluoro-3-hydroxy-3-methylbutyl)-6-(4-pyrimidinylamino)nicotinamide]
- IC50: 0.331 µM

Structure (SMILES): CC(C)Nc1cc(Nc2ncc(C#N)cn2)ncc1C(=O)NC[C@@H](F)C(C)(C)O [Example 22, 6-((5-cyano-2-pyrimidinyl)amino)-N-((2R)-2-fluoro-3-hydroxy-3-methylbutyl)-4-(isopropylamino)nicotinamide]
- IC50: 0.342 µM

Structure (SMILES): CC(C)(O)[C@H](F)CNC(=O)c1cnc(Nc2nc(-c3cccnc3)cs2)cc1NC1CC1 [Example 23, 4-(cyclopropylamino)-N-((2R)-2-fluoro-3-hydroxy-3-methylbutyl)-6-((4-(3-pyridinyl)-1,3-thiazol-2-yl)amino)nicotinamide]
- IC50: 0.032 µM

Structure (SMILES): CC(C)Nc1cc(Nc2ccnc(NC3CC3)n2)ncc1C(=O)NC[C@@H](F)C(C)(C)O [Example 24, 6-((2-(cyclopropylamino)-4-pyrimidinyl)amino)-N-((2R)-2-fluoro-3-hydroxy-3-methylbutyl)-4-(isopropylamino)nicotinamide]
- IC50: 0.312 µM

Structure (SMILES): CC(C)Nc1cc(Nc2ccnc(NC3CCCOC3)n2)ncc1C(=O)NC[C@@H](F)C(C)(C)O (stereo partly drawn) [Example 25, N-((2R)-2-fluoro-3-hydroxy-3-methylbutyl)-4-(isopropylamino)-6-((2-(tetrahydro-2H-pyran-3-ylamino)-4-pyrimidinyl)amino)nicotinamide]
- IC50: 0.372 µM

Structure (SMILES): CC(C)Nc1cc(Nc2ccnc(N3CCC(F)C3)n2)ncc1C(=O)NC[C@@H](F)C(C)(C)O (stereo partly drawn) [Example 26, N-((2R)-2-fluoro-3-hydroxy-3-methylbutyl)-6-((2-(3-fluoro-1-pyrrolidinyl)-4-pyrimidinyl)amino)-4-(isopropylamino)nicotinamide]
- IC50: 0.139 µM

Structure (SMILES): CC(=O)N[C@H](C)CCNC(=O)c1cnc(Nc2ncc(C#N)cc2Cl)cc1NC(C)C [Example 28, (R)—N-(3-acetamidobutyl)-6-((3-chloro-5-cyanopyridin-2-yl)amino)-4-(isopropylamino)nicotinamide]
- IC50: 0.27 µM

Structure (SMILES): CC(C)NC(=O)N[C@H](C)CCNC(=O)c1cnc(Nc2ncc(C#N)cc2F)cc1NC(C)C [Example 29, (R)-6-((5-cyano-3-fluoropyridin-2-yl)amino)-4-(isopropylamino)-N-(3-(3-isopropylureido)butyl)nicotinamide]
- IC50: 0.111 µM

Structure (SMILES): CCNC(=O)[C@H]1CC[C@H](NC(=O)c2cnc(Nc3ncc(C#N)cc3F)cc2NC(C)C)CC1 [Example 30, 6-((5-cyano-3-fluoropyridin-2-yl)amino)-N-((1R,4R)-4-(ethylcarbamoyl)cyclohexyl)-4-(isopropylamino)nicotinamide]
- EC50: 0.163 µM

Structure (SMILES): CC(C)Nc1cc(Nc2ccc(C#N)cn2)ncc1C(=O)NC1CCC(O)(c2ccnn2C)CC1 (stereo not drawn) [Example 31, 6-((5-cyanopyridin-2-yl)amino)-N-((1s,4s)-4-hydroxy-4-(1-methyl-1H-pyrazol-5-yl)cyclohexyl)-4-(isopropylamino)nicotinamide]
- EC50: 0.17 µM

Structure (SMILES): CS[C@H]1CC[C@H](NC(=O)c2cnc(Nc3ncc(C#N)cc3F)cc2NC(C)C)CC1 [Example 32, 6-((5-cyano-3-fluoropyridin-2-yl)amino)-4-(isopropylamino)-N-((1R,4R)-4-(methylthio)cyclohexyl)nicotinamide]
- EC50: 0.199 µM

Structure (SMILES): CC(C)Nc1cc(Nc2ncc(C#N)cc2F)ncc1C(=O)N[C@H]1CC[C@H](S(C)(=O)=O)CC1 [Example 33, 6-((5-cyano-3-fluoropyridin-2-yl)amino)-4-(isopropylamino)-N-((1R,4R)-4-(methylsulfonyl)cyclohexyl)nicotinamide]
- EC50: 0.149 µM

Structure (SMILES): CC(=O)Nc1nc(Nc2cc(NC(C)C)c(C(=O)NC[C@@H](F)C(C)(C)O)cn2)ncc1C#N [Example 34]
- EC50: 0.122 µM
